Assay results from patent US7504517B2, “Kv1.5 potassium channel inhibitors” (Wyeth, priority 2006, dated 2009).
Where a name gives a salt, the structure may show the parent alone.

Key:
Kv1.5 = target: T1, Kv1.5 (Homo sapiens, UniProt P22460); assay: Kv1.5 Patch Clamp EP; type: cell-based; settings: whole cell patch clamp; for inhibition at 1 µM: single point, Kv1.5 stably over expressed in HEK or LTK- cells; for IC50: HEK or LTK- cells, at least four concentrations, n=3
T1 construct: expressed in transfected cells; host or cells: HEK or LTK- cells
T1 sequence (P22460 whole entry): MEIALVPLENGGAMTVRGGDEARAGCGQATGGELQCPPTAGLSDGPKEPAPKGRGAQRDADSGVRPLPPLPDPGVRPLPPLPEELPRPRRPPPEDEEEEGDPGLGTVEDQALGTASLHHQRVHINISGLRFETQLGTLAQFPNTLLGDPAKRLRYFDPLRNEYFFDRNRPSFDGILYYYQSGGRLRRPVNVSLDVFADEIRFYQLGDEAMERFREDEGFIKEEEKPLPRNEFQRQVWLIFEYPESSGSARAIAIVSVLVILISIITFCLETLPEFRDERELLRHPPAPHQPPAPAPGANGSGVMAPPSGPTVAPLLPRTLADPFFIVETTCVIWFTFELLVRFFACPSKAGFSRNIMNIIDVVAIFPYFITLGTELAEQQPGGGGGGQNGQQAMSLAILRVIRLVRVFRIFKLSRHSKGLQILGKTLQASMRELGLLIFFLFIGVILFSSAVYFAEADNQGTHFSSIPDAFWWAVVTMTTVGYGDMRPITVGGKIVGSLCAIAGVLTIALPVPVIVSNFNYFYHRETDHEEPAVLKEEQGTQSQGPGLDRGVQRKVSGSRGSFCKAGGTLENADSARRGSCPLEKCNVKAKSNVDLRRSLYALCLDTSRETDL
Protocol: The external solution is standard Tyrodes solution. […] Inhibition was measured at the end of the 1 second pulses and expressed relative to controls. Initial Kv1.5 inhibition is estimated by single point determinations done at 1 μM.

L-type calcium channels = assay: FLIPR L-Type Calcium Channel Assay; type: cell-based, murine; settings: HL-1 cells expressing endogenous L-type calcium channels; calcium influx after 20 mM KCl; read-out: L-type Ca^2+ IC50
Summary of the method: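 After a 15 min compound pre-incubation at 37 °C with 2.5 mM probenecid, L-type channels were opened by depolarising with 20 mM KCl (final). Fluorescence (488 nm excitation, 510–570 nm emission) was read for 5 min.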

HERG = HERG (Homo sapiens, UniProt Q12809); assay: HERG Patch Clamp EP; settings: for inhibition at 10 µM: human, HEK cells stably overexpressing HERG
Sequence of HERG (Q12809 whole entry): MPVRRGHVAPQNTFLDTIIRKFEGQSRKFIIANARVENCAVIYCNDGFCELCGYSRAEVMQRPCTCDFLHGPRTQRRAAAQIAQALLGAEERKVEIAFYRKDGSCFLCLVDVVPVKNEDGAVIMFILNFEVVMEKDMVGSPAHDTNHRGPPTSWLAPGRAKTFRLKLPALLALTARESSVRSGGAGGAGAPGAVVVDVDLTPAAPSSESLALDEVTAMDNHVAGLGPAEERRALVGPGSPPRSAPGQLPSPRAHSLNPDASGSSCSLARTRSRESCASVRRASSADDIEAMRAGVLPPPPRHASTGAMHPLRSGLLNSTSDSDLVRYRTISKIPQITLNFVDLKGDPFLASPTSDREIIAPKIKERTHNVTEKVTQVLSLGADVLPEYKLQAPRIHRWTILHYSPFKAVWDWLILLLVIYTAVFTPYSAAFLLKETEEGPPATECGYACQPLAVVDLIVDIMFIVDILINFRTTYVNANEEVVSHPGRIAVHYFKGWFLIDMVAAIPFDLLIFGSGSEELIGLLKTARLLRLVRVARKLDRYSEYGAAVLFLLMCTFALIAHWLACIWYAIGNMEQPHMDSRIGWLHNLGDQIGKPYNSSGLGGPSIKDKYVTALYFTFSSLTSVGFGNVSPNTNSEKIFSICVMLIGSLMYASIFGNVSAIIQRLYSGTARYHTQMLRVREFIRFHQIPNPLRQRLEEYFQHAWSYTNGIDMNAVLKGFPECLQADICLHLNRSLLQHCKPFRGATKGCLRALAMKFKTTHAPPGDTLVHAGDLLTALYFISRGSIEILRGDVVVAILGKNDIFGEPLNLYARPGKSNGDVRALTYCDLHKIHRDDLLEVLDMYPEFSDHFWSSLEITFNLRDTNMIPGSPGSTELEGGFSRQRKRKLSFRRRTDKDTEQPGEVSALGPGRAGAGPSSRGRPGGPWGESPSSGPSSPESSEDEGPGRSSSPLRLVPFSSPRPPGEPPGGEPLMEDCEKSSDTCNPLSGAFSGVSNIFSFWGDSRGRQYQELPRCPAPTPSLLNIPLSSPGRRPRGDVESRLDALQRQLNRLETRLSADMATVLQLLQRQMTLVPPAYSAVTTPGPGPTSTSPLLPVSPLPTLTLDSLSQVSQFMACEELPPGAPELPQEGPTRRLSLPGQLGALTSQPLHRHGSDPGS

`COc1ccc(CCN2C(=O)N(NC(C)=O)CC2Cc2ccc(C(C)(C)C)cc2)cc1` (stereo not drawn) [Compound 71, 1-(Acetylamino)-3-[2-(4-methoxyphenyl)ethyl]-4-[(4-tert-butyl)benzyl]-2-imidazolidinone] showed an inhibition at 1 µM (Kv1.5) of 94%, an IC50 (L-type calcium channels) of 13 µM and an inhibition at 10 µM (HERG) of 30%.
Work on `COc1ccc(CCN2C(=O)N(NCc3cnc4ccccc4c3)CC2c2ccc(C)c(C)c2)cc1` (stereo not drawn) [Compound 96, 4-(3,4-Dimethylphenyl)-3-[2-(4-methoxyphenyl)ethyl]-1-[(quinolin-3-ylmethyl)-amino]-2-imidazolidinone] yielded an inhibition at 1 µM (Kv1.5) of 86%, an IC50 (L-type calcium channels) of 1.9 µM and an inhibition at 10 µM (HERG) of 87%.
`COc1ccc(CCN2C(=O)N(NS(C)(=O)=O)CC2c2ccc(OC)cc2)cc1` (stereo not drawn) [Compound 23, 1-(Methylsulfonylamino)-3-[2-(4-methoxyphenyl)ethyl]-4-(4-methoxyphenyl)-2-imidazolidinone] was tested, and the inhibition at 1 µM (Kv1.5) was 66%, the IC50 (Kv1.5) was 0.703 µM and the IC50 (L-type calcium channels) was 30 µM. It also gave an IC50 (HERG) of 23.6 µM and an inhibition at 10 µM (HERG) of 21%.
Work on `COc1ccc(CCN2C(=O)N(N)CC2c2ccc(C3CC3)cc2)cc1` (stereo not drawn) [Compound 6, 1-Amino-3-[2-(4-methoxyphenyl)ethyl]-4-(4-cyclopropylphenyl)-2-imidazolidinone 4-methylbenzenesulfonic acid salt] yielded an inhibition at 1 µM (Kv1.5) of 53%, an IC50 (L-type calcium channels) of 12 µM and an inhibition at 10 µM (HERG) of 29%.
Work on `COc1ccc(CCCN2C(=O)N(NS(N)(=O)=O)CC2c2ccc(OC)cc2)cc1` (stereo not drawn) [Compound 44, 1-(Sulfamoylamino)-3-[3-(4-methoxyphenyl)propyl]-4-[(4-methoxy)phenyl]-2-imidazolidinone] yielded an inhibition at 1 µM (Kv1.5) of 60%, an IC50 (L-type calcium channels) of 25 µM and an inhibition at 10 µM (HERG) of 22%.
Molecule `COc1ccc(CCN2C(=O)N(NS(=O)(=O)CC(F)(F)F)CC2c2ccc(C(C)(C)C)cc2)cc1` (stereo not drawn) [Compound 38, 1-(2,2,2-Trifluoroethanesulfonylamino)-4-[4-(tert-butyl)phenyl]-3-[2-(4-methoxyphenyl)ethyl]-2-imidazolidinone] has an inhibition at 1 µM (Kv1.5) of 85%, an IC50 (L-type calcium channels) of 5.6 µM and an inhibition at 10 µM (HERG) of 56%.
Molecule `COc1ccc(CCN2C(=O)N(NCc3ccc(N(C)C)cc3)CC2c2ccc(OC)cc2)cc1` (stereo not drawn) [Compound 90, 1-[(4-(Dimethylamino)phenylmethyl)amino]-3-[2-(4-methoxyphenyl)ethyl]-4-(4-methoxyphenyl)-2-imidazolidinone] has an inhibition at 1 µM (Kv1.5) of 74%, an IC50 (L-type calcium channels) of 7 µM and an inhibition at 10 µM (HERG) of 28%.
Work on `COc1ccc(CCN2C(=O)N(N(CCn3ccnc3)C(C)=O)CC2c2ccc(C(C)(C)C)cc2)cc1` (stereo not drawn) [Compound 100, 1-N-[2-(Imidazol-1-yl)ethyl]-N-[acetyl]amino-3-[2-(4-methoxyphenyl)ethyl]-4-[(4-tert-butyl)phenyl]-2-imidazolidinone] yielded an inhibition at 1 µM (Kv1.5) of 46%, an IC50 (L-type calcium channels) of 16 µM and an inhibition at 10 µM (HERG) of 92%.
`COc1ccc(CCCN2C(=O)N(NS(=O)(=O)CS(C)(=O)=O)CC2c2ccc(C3CC3)cc2)cc1` (stereo not drawn) [Compound 127, N-{4-(4-cyclopropylphenyl)-3-[3-(4-methoxyphenyl)propyl]-2-oxoimidazolidin-1-yl}-1-(methylsulfonyl)methanesulfonamide] gave an inhibition at 1 µM (Kv1.5) of 91%, an IC50 (L-type calcium channels) of 19 µM and an inhibition at 10 µM (HERG) of 54%.
In the case of `COc1ccc(CCN2C(=O)N(NS(C)(=O)=O)CC2c2ccc(C(C)(C)C)cc2)cc1` (stereo not drawn) [Compound 24, 1-(Methylsulfonylamino)-3-[(4-methoxyphenyl)ethyl]-4-[4-(tert-butyl)phenyl]-imidazolidinone], the inhibition at 1 µM (Kv1.5) is reported as 82%, the IC50 (Kv1.5) is reported as 0.514 µM and the IC50 (L-type calcium channels) is reported as 10 µM. For the same molecule, the IC50 (HERG) was 6.4 µM and the inhibition at 10 µM (HERG) was 74%.
Work on `COc1ccc(CCN2C(=O)N(NS(=O)(=O)Cc3ccccc3)CC2c2ccc(OC)cc2)cc1` (stereo not drawn) [Compound 63, 1-[(Phenylmethyl)sulfonylamino]-3-[2-(4-methoxyphenyl)ethyl]-4-(4-methoxyphenyl)-2-imidazolidinone] yielded an inhibition at 1 µM (Kv1.5) of 95%, an IC50 (L-type calcium channels) of 6.3 µM and an inhibition at 10 µM (HERG) of 44%.
Work on `COc1ccc(CCN2C(=O)N(N(C)S(=O)(=O)Cc3ccccc3)CC2c2ccc(C)c(C)c2)cc1` (stereo not drawn) [Compound 67, 1-[(N-methyl-N-benzylsulfonyl)amino]-3-[2-(4-methoxy-phenyl)ethyl]-4-(3,4-dimethylphenyl)-2-imidazolidinone] yielded an inhibition at 1 µM (Kv1.5) of 90%, an IC50 (L-type calcium channels) of 8 µM and an inhibition at 10 µM (HERG) of 22%.
Molecule `COc1ccc(CCN2C(=O)N(NS(=O)(=O)CC(=O)NC3CC3)CC2c2ccc(C3CC3)cc2)cc1` (stereo not drawn) [Compound 51, 1-[[2-(Cyclopropylamino)-2-oxoethyl]sulfonylamino]-3-[2-(4-methoxyphenyl)ethyl]-4-(4-cyclopropylphenyl)-2-imidazolidinone] has an inhibition at 1 µM (Kv1.5) of 87%, an IC50 (L-type calcium channels) of 21 µM and an inhibition at 10 µM (HERG) of 20%.
`COc1ccc(CCN2C(=O)N(NS(=O)(=O)C3CC3)CC2c2ccc(OC)cc2)cc1` (stereo not drawn) [Compound 29, 1-(Cyclopropylsulfonylamino)-3-[(4-methoxyphenyl)ethyl]-4-(4-methoxyphenyl)-2-imidazolidinone] was tested, and the inhibition at 1 µM (Kv1.5) was 85%, the IC50 (L-type calcium channels) was 34 µM and the inhibition at 10 µM (HERG) was 31%.
Molecule `COc1ccc(CCN2C(=O)N(NS(N)(=O)=O)CC2c2ccc(C(C)(C)C)cc2)cc1` (stereo not drawn) [Compound 9, 1-(Aminosulfonylamino)-3-[2-(4-methoxyphenyl)ethyl]-4-[4-(tert-butyl)phenyl]-2-imidazolidinone] has an inhibition at 1 µM (Kv1.5) of 90%, an IC50 (Kv1.5) of 0.689 µM and an IC50 (L-type calcium channels) of 23 µM. The IC50 (HERG) was 7.3 µM and the inhibition at 10 µM (HERG) was 62%.
Work on `C=CS(=O)(=O)NN1CC(c2ccc3c(c2)OCCO3)N(CCc2ccc(OC)cc2)C1=O` (stereo not drawn) [Compound 33, 1-(Vinylsulfonylamino)-3-[2-(4-methoxyphenyl)ethyl]-4-[(2,3-dihydrobenzo-[1,4]dioxin-6-yl)]-2-imidazolidinone] yielded an inhibition at 1 µM (Kv1.5) of 85%, an IC50 (L-type calcium channels) of 35 µM and an inhibition at 10 µM (HERG) of 20%.
Molecule `COc1ccc(CCN2C(=O)N(NS(=O)(=O)CC#N)CC2c2ccc3c(c2)OCCO3)cc1` (stereo not drawn) [Compound 40, 1-(Cyanomethylsulfonylamino)-3-[2-(4-methoxyphenyl)ethyl]-4-[(2,3-dihydro-benzo[b][1,4]dioxin-6-yl)]-2-imidazolidinone] has an inhibition at 1 µM (Kv1.5) of 70%, an IC50 (L-type calcium channels) of 30 µM and an inhibition at 10 µM (HERG) of 1%.
Work on `COc1ccc(CCN2C(=O)N(NS(N)(=O)=O)CC2c2ccc(C)c(C)c2)cc1` (stereo not drawn) [Compound 8, 1-(Aminosulfonylamino)-3-[2-(4-methoxyphenyl)ethyl]-4-(3,4-dimethylphenyl)-2-imidazolidinone] yielded an inhibition at 1 µM (Kv1.5) of 90%, an IC50 (L-type calcium channels) of 15 µM and an inhibition at 10 µM (HERG) of 16%.
In the case of `COc1ccc(CCN2C(=O)N(NC(=O)OC(C)(C)C)CC2c2ccc(C)c(C)c2)cc1` (stereo not drawn) [Compound 85, {4-(3,4-dimethylphenyl)-3-[2-(4-methoxyphenyl)ethyl]-2-oxo-imidazolidin-1-yl}-carbamic acid tert-butyl ester], the inhibition at 1 µM (Kv1.5) is reported as 92%, the IC50 (L-type calcium channels) is reported as 3.3 µM and the inhibition at 10 µM (HERG) is reported as 52%.
Molecule `COc1ccc(CCN2C(=O)N(NS(C)(=O)=O)CC2c2ccc(OC)c(C)c2)cc1` (stereo not drawn) [Compound 12, 1-(Methylsulfonylamino)-3-[2-(4-methoxyphenyl)ethyl]-4-[(3-methyl-4-methoxy)phenyl]-2-imidazolidinone] has an inhibition at 1 µM (Kv1.5) of 82%, an IC50 (L-type calcium channels) of 38 µM and an inhibition at 10 µM (HERG) of 19%.
In the case of `CC(C)(C)c1ccc(C2CN(NS(C)(=O)=O)C(=O)N2CCCc2ccccc2)cc1` (stereo not drawn) [Compound 47, 1-(Methylsulfonylamino)-3-(3-phenylpropyl)-4-[4-(tert-butyl)phenyl]-2-imidazolidinone], the inhibition at 1 µM (Kv1.5) is reported as 73%, the IC50 (L-type calcium channels) is reported as 26 µM and the inhibition at 10 µM (HERG) is reported as 65%.
Work on `COc1ccc(CCN2C(=O)N(NCc3ccc(F)cc3)CC2c2ccc(C)c(C)c2)cc1` (stereo not drawn) [Compound 89, 1-[(4-Fluorophenylmethyl)amino]-3-[2-(4-methoxyphenyl)ethyl]-4-(3,4-dimethylphenyl)-2-imidazolidinone] yielded an inhibition at 1 µM (Kv1.5) of 85%, an IC50 (L-type calcium channels) of 7.6 µM and an inhibition at 10 µM (HERG) of 98%.
Work on `COc1ccc(CCN2C(=O)N(NS(C)(=O)=O)C[C@@H]2c2ccc(OC(F)F)cc2)cc1` [Compound 171, N-{(4S)-4-[4-(difluoromethoxy)phenyl]-3-[2-(4-methoxyphenyl)ethyl]-2-oxoimidazolidin-1-yl}methanesulfonamide] yielded an inhibition at 1 µM (Kv1.5) of 71%, an IC50 (Kv1.5) of 0.531 µM and an IC50 (L-type calcium channels) of 30 µM. It also gave an IC50 (HERG) of 5.8 µM and an inhibition at 10 µM (HERG) of 55%.
For `COc1ccc(CCN2C(=O)N(NS(C)(=O)=O)CC2c2ccc(C)c(C)c2)cc1` (stereo not drawn) [Compound 7, 1-(Methylsulfonylamino)-3-[2-(4-methoxyphenyl)ethyl]-4-(3,4-dimethylphenyl)-2-imidazolidinone], the inhibition at 1 µM (Kv1.5) was 92%, the IC50 (Kv1.5) was 0.232 µM and the IC50 (L-type calcium channels) was 43 µM. It also gave an inhibition at 10 µM (HERG) of 16%.
`COc1ccc(CCCN2C(=O)N(N)CC2c2ccc(C3CC3)cc2)cc1` (stereo not drawn) [Compound 4, 1-Amino-4-(4-cyclopropylphenyl)-3-[3-(4-methoxyphenyl)propyl]-2-imidazolidinone] was tested, and the inhibition at 1 µM (Kv1.5) was 72%, the IC50 (L-type calcium channels) was 4.5 µM and the inhibition at 10 µM (HERG) was 53%.
`COc1ccc(CCN2C(=O)N(NCc3ccc(C#N)cc3)CC2c2ccc(C)c(C)c2)cc1` (stereo not drawn) [Compound 83, 1-[(4-Cyanophenylmethyl)amino]-3-[2-(4-methoxyphenyl)ethyl]-4-(3,4-dimethylphenyl)-2-imidazolidinone] gave an inhibition at 1 µM (Kv1.5) of 96%, an IC50 (L-type calcium channels) of 2.8 µM and an inhibition at 10 µM (HERG) of 97%.
In the case of `COc1ccc(CCN2C(=O)N(NCc3cccnc3)CC2c2ccc(C)c(C)c2)cc1` (stereo not drawn) [Compound 94, 1-[(Pyridin-3-ylmethyl)amino]-3-[2-(4-methoxyphenyl)ethyl]-4-(3,4-dimethylphenyl)-2-imidazolidinone], the inhibition at 1 µM (Kv1.5) is reported as 67%, the IC50 (L-type calcium channels) is reported as 13 µM and the inhibition at 10 µM (HERG) is reported as 35%.
